Legend:
[1] = tested on: granule cells of the dentate gyrus; assay: Stereology of the DG: total number of granule cells; type: in vivo, mouse; conditions: 5.0 mg/kg P3-P15
Experimental: Euploid and Ts65Dn mice received a daily subcutaneous injection (at 9-10 am) of 7,8-DHF (5.0 mg/kg in vehicle: PBS with 1% DMSO) or vehicle from postnatal day 3 (P3) to postnatal day 15. This timing was chosen because it corresponds to that previously used to test the effects of fluoxetine and other pharmacotherapies in the neonate Ts65Dn mouse (Bianchi et al., 2010b; Giacomini et al., 2015; Stagni et al., 2016). Mice that received 7,8-DHF will be called “treated mice” (treated euploid mice: n=25; treated Ts65Dn mice: n=15). Mice that received the vehicle will be called “untreated mice” (untreated euploid mice: n=35; untreated Ts65Dn mice: n=21). […]
Unbiased stereology was performed on Hoechst-stained sections from P15 mice. […] Granule cell nuclei were counted with a ×64 oil objective (1.4 NA). Granule cell nuclei intersecting the uppermost focal plane and intersecting the exclusion lines of the count frame were not counted. […]
where Q is the number of particles counted in the disectors, dis is the number of disectors and Vdis is the volume of the disector. For calculation of Vdis the disector height was corrected for section shrinkage in the z-plane (Dorph Petersen et al., 2001) according to the formula: h=counting thickness×(original thickness/measured thickness). The section thickness was measured during neuron counting at different random locations. […]

[2] = Liu et al., 2010 and 2013; cited from earlier work
[3] = Body and brain weight, neonatal treatment (P15, P45); type: in vivo, mouse
Experimental: (§1) Euploid and Ts65Dn mice received a daily subcutaneous injection (at 9-10 am) of 7,8-DHF (5.0 mg/kg in vehicle: PBS with 1% DMSO) or vehicle from postnatal day 3 (P3) to postnatal day 15. This timing was chosen because it corresponds to that previously used to test the effects of fluoxetine and other pharmacotherapies in the neonate Ts65Dn mouse (Bianchi et al., 2010b; Giacomini et al., 2015; Stagni et al., 2016). Mice that received 7,8-DHF will be called “treated mice” (treated euploid mice: n=25; treated Ts65Dn mice: n=15). Mice that received the vehicle will be called “untreated mice” (untreated euploid mice: n=35; untreated Ts65Dn mice: n=21). […] The brains were excised and cut along the midline. The left hemisphere of a group of mice was fixed by immersion in PFA 4% and frozen, and the left hemisphere of another group of mice was used for Golgi staining. The right hemispheres of all mice was kept at −80° C. and used for western blotting.
Euploid and Ts65Dn mice received a daily subcutaneous injection (at 9-10 am) of 7,8-DHF (5.0 mg/kg in vehicle) or vehicle from postnatal day 3 (P3) to postnatal day P45-P50. […] These mice will be called here P45 mice. Mice were behaviorally tested in the 6 days that preceded the day of sacrifice (FIG. 2B).
The body weight of mice of all groups was recorded prior to sacrifice and the brain weight was recorded immediately after brain removal. The number of animals used for each experimental procedure is specified in the figure legends and in Table 3.

[4] = tested on: neural precursor cells of the DG; assay: BrdU-positive cells in the dentate gyrus of P15 mice; type: in vivo, mouse; conditions: for number of BrdU-positive cells in the DG: Ts65Dn pups
Experimental: In a pilot study we tested the effects of different doses of 7,8-DHF on the proliferation rate in the SGZ of Ts65Dn mice. Mice received a daily subcutaneous injection of 7,8-DHF (2.5, 5.0, or 10.0 mg/kg in PBS with 1-2% DMSO) from postnatal day 3 (P3) to P15. […] Therefore, this study (Experiment 1 and Experiment 2) was carried out using a 5.0 mg/kg dose.
as §1
One out of six free-floating sections (n=15-18 sections) from the hippocampal formation of P15 mice was incubated with rat anti-BrdU antibody.
BrdU-positive cells in the DG of P15 mice were detected using a fluorescence microscope (Eclipse; objective: ×40, 0.75 NA; final magnification: ×400). Quantification of BrdU-labeled nuclei was conducted in every 6th section using a modified unbiased stereology protocol that has previously been reported as successfully quantifying BrdU labeling (Malberg et al., 2000; Kempermann and Gage, 2002; Tozuka et al., 2005). All BrdU labeled cells located in the granule cell and subgranular layers were counted in their entire z axis (1 μm steps) in each section. To avoid oversampling errors, nuclei intersecting the uppermost focal plane were excluded. The total number of BrdU labeled cells per animal was determined and multiplied by six to obtain the total estimated number of cells per DG.

[5] = P15 Ts65Dn mice, 5.0 mg/kg s.c. daily P3-P15
[6] = P45 Ts65Dn mice, 5.0 mg/kg s.c. daily P3-P45

O=c1cc(-c2ccccc2)oc2c(O)c(O)ccc12 [7,8-DHF, 7,8-dihydroxyflavone]
total number of granule cells ([1]; P15 Ts65Dn mice): became similar to that of untreated euploid mice | total number of granule cells ([1]; P15 euploid mice): no effect on total number of granule cells | blood-brain barrier penetration [2]: penetrates the blood-brain barrier | body weight [3, 5]: did not further reduce the body weight | brain weight [3, 5]: did not cause a further brain weight reduction | brain weight ([3]; P15 euploid mice, 5.0 mg/kg s.c. daily P3-P15, vs untreated): slight but significant brain weight reduction | body weight [3, 6]: did not further reduce their body weight | brain weight (reduction vs untreated euploid mice) [3, 6]: this difference disappeared | body weight ([3]; P45 euploid mice, 5.0 mg/kg s.c. daily P3-P45, vs untreated): body weight reduction | number of BrdU-positive cells in the DG ([4]; 2.5 mg/kg P3-P15, vs vehicle): no effect | number of BrdU-positive cells in the DG ([4]; 5.0 mg/kg P3-P15, vs vehicle): increased the number of BrdU-positive cells | number of BrdU-positive cells in the DG ([4]; 10.0 mg/kg P3-P15, vs vehicle): increased the number of BrdU-positive cells | number of NPCs (BrdU-positive cells) in the DG ([4]; euploid mice, 5.0 mg/kg P3-P15): no effect on the number of NPCs | optimum dose for proliferation rate in the SGZ ([4]; pilot study, Ts65Dn mice, 2.5, 5.0 or 10.0 mg/kg s.c. P3-P15): 5.0 mg/kg | total number of BrdU-positive (proliferating) cells per DG ([4]; treated Ts65Dn mice, 5.0 mg/kg P3-P15, mean±SE, untreated Ts65Dn 7166±337, untreated euploid 10,281±111): 8963±449
